For one test, the target named is hNav1.7 (Homo sapiens, UniProt Q15858). The test can be described thus: cell-based. Format: cell-based. The following applies: for IC50: PatchXpress, read-out: PX hNav1.7 Tonic IC50; for Nav1.4/Nav1.7: ratio of PX tonic IC50 values.
The target in a further test is hNav1.4 (Homo sapiens, UniProt P35499). The test is described as follows: cell-based. Conditions: for IC50: PatchXpress, read-out: PX hNav1.4 Tonic IC50; for Nav1.4/Nav1.7: ratio of PX tonic IC50 values. Type of test: cell-based.

Broadly, the IC50 is the concentration at which inhibition is half-maximal.

Where two headings read alike, the source gives them in different places.

Chain of hNav1.4 (P35499 whole entry): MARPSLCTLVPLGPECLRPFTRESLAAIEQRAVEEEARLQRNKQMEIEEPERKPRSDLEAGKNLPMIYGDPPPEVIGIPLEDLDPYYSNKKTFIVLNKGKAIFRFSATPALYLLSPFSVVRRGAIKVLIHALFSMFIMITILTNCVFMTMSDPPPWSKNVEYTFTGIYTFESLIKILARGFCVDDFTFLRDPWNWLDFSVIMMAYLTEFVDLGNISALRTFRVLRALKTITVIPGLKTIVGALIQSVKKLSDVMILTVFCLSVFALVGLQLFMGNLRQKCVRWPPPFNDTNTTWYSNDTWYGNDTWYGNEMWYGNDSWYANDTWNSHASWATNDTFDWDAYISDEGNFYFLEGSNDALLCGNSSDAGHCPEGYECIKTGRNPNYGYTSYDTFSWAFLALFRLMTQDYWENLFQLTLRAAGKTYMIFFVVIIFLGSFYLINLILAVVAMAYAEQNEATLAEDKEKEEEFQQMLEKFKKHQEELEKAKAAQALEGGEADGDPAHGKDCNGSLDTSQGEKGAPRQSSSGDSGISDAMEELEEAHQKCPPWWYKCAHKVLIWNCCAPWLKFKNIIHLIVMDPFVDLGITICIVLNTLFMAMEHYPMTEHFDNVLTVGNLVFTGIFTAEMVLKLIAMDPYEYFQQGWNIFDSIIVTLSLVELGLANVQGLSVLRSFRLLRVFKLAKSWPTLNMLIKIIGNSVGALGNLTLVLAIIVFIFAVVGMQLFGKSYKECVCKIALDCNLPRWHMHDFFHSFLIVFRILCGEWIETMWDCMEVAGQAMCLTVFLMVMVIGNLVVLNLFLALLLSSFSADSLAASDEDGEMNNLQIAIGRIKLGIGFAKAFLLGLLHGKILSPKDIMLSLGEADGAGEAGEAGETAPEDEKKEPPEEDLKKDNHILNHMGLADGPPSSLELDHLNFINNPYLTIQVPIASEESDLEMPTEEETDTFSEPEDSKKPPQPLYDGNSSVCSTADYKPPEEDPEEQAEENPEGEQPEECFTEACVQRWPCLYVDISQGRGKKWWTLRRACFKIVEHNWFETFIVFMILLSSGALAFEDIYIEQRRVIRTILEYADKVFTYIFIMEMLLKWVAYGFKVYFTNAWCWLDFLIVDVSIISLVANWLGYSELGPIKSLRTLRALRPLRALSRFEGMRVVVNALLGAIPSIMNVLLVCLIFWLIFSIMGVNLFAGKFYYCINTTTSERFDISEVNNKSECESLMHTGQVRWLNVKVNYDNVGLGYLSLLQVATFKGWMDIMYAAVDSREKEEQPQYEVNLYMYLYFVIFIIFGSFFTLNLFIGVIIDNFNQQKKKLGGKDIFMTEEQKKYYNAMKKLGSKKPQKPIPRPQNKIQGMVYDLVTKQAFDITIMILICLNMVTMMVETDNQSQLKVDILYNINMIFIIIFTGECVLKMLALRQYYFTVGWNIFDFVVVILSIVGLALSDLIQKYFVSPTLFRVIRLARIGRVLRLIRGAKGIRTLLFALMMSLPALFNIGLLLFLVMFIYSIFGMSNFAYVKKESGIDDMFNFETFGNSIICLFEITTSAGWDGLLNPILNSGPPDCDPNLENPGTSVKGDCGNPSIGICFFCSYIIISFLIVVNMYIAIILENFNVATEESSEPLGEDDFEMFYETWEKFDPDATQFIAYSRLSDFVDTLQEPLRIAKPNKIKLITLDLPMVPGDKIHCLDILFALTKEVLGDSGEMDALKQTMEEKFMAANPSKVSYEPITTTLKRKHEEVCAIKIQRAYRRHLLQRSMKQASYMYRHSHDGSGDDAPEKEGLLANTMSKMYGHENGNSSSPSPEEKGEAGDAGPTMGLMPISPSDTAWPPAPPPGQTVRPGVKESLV
Chain of hNav1.7 (Q15858 whole entry): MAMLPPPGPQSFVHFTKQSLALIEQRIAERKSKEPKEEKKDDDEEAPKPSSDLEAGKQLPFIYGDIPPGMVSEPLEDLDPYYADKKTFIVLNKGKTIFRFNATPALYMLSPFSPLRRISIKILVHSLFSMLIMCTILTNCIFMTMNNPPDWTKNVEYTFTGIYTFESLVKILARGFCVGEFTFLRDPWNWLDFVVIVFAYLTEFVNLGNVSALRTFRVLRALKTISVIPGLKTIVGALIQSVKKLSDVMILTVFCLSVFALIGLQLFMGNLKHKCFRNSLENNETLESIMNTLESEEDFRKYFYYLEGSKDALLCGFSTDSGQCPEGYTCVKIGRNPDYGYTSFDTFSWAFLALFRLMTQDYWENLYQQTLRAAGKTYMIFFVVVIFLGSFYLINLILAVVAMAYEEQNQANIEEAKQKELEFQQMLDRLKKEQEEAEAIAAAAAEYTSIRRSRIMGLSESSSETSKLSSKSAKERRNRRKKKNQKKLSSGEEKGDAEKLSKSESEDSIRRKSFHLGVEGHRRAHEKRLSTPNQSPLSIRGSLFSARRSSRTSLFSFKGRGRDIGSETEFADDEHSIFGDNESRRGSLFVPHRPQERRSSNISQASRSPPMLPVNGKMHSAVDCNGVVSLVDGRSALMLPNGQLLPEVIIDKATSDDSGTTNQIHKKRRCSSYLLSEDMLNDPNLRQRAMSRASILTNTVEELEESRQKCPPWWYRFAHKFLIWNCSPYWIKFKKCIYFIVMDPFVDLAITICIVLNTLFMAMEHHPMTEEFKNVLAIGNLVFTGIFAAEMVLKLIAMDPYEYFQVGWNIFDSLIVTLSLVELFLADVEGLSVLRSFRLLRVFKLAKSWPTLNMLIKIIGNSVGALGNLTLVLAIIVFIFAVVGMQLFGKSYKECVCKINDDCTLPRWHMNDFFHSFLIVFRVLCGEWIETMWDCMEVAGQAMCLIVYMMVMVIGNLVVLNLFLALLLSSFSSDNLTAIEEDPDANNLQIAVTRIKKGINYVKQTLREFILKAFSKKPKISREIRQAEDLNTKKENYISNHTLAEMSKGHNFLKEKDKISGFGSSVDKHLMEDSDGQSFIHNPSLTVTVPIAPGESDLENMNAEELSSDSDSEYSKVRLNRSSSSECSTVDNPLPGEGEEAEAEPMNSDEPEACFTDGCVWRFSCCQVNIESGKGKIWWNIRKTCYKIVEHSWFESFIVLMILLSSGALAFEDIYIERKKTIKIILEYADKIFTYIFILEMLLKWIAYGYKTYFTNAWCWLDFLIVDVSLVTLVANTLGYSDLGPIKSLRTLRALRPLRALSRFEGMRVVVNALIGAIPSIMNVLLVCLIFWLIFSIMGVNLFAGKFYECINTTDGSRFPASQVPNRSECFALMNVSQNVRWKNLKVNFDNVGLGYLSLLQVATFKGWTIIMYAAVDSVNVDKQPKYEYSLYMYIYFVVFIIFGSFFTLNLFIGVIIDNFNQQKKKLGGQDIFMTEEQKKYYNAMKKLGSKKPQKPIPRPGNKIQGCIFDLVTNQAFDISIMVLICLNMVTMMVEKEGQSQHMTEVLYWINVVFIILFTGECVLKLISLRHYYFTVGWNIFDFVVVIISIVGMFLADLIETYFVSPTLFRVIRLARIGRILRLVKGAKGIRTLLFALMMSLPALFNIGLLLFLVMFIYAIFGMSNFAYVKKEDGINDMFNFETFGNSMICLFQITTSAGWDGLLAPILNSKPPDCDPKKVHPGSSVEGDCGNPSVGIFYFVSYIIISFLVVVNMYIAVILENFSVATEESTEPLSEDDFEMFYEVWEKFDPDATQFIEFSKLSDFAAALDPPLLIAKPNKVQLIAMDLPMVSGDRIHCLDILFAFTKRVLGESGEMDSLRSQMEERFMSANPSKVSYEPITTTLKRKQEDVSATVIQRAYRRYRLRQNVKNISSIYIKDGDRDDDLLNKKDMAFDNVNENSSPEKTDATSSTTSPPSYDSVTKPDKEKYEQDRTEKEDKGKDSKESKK

As to `CC[C@H](C)[C@H](NC(=O)[C@@H](NC(=O)[C@H](CCCCN)NC(=O)[C@H](CCCNC(=N)N)NC(=O)[C@@H]1CSSC[C@@H]2NC(=O)[C@H](C)NC(=O)[C@H](CCCNC(=N)N)NC(=O)[C@H](CCCCN)NC(=O)[C@H](CO)NC(=O)[C@H](CC(=O)O)NC(=O)[C@@H]3CSSC[C@H](NC(=O)[C@H](CCCNC(=N)N)NC(=O)[C@H](CC(C)C)NC(=O)CNC(=O)[C@H](CCC(=O)O)NC(=O)[C@H](CSSC[C@H](NC(=O)[C@@H](N)Cc4ccc(O)cc4)C(=O)N[C@@H](CCC(=O)O)C(=O)N[C@@H](CCCCN)C(=O)N[C@@H](Cc4c[nH]c5ccccc45)C(=O)N[C@@H](CCSC)C(=O)N[C@@H](Cc4c[nH]c5ccccc45)C(=O)N[C@@H]([C@@H](C)O)C(=O)N3)NC2=O)C(=O)N[C@@H](CCCCN)C(=O)N[C@@H](CC(C)C)C(=O)N[C@@H](Cc2c[nH]c3ccccc23)C(=O)N1)[C@@H](C)CC)C(N)=O` [compound 50], the IC50 on hNav1.7 (tonic, Table 11) worked out at 58.7 nM; at hNav1.4 (tonic, Table 11), 453 nM. For the same compound, the Nav1.4/Nav1.7 at hNav1.7 (Table 11) is given as 8.
For the compound `CC[C@H](C)[C@H](NC(=O)[C@@H](NC(=O)[C@H](CCCCN)NC(=O)[C@H](CCCNC(=N)N)NC(=O)[C@@H]1CSSC[C@@H]2NC(=O)[C@H](C)NC(=O)[C@H](CCCNC(=N)N)NC(=O)[C@H](CCCCN)NC(=O)[C@H](CO)NC(=O)[C@H](CC(=O)O)NC(=O)[C@@H]3CSSC[C@H](NC(=O)[C@H](CCCNC(=N)N)NC(=O)[C@H](CC(C)C)NC(=O)CNC(=O)[C@H](CCC(=O)O)NC(=O)[C@H](CSSC[C@H](NC(=O)[C@@H](N)Cc4ccc(O)cc4)C(=O)N[C@@H](CCC(N)=O)C(=O)N[C@@H](CCCCN)C(=O)N[C@@H](CCC(=O)O)C(=O)N[C@@H](CCSC)C(=O)N[C@@H](Cc4c[nH]c5ccccc45)C(=O)N[C@@H]([C@@H](C)O)C(=O)N3)NC2=O)C(=O)N[C@@H](CCCCN)C(=O)N[C@@H](CC(C)C)C(=O)N[C@@H](Cc2c[nH]c3ccccc23)C(=O)N1)[C@@H](C)CC)C(N)=O` [compound 52], the IC50 at hNav1.7 (tonic, Table 11) was over 1000 nM; on hNav1.4 (tonic, Table 11) it was 3.1 nM.
As for `CC[C@H](C)[C@H](NC(=O)[C@@H](NC(=O)[C@H](CCCCN)NC(=O)[C@H](CCCNC(=N)N)NC(=O)[C@@H]1CSSC[C@@H]2NC(=O)[C@H](C)NC(=O)[C@H](CCCNC(=N)N)NC(=O)[C@H](CCC(=O)O)NC(=O)[C@H](CO)NC(=O)[C@H](CC(=O)O)NC(=O)[C@@H]3CSSC[C@H](NC(=O)[C@H](CCCNC(=N)N)NC(=O)[C@H](CC(C)C)NC(=O)CNC(=O)[C@H](CCC(=O)O)NC(=O)[C@H](CSSC[C@H](NC(=O)[C@@H](N)Cc4ccc(O)cc4)C(=O)N[C@@H](CCC(N)=O)C(=O)N[C@@H](CCCCN)C(=O)N[C@@H](Cc4c[nH]c5ccccc45)C(=O)N[C@@H](CCSC)C(=O)N[C@@H](Cc4c[nH]c5ccccc45)C(=O)N[C@@H]([C@@H](C)O)C(=O)N3)NC2=O)C(=O)N[C@@H](CCCCN)C(=O)N[C@@H](CC(C)C)C(=O)N[C@@H](Cc2c[nH]c3ccccc23)C(=O)N1)[C@@H](C)CC)C(N)=O` [compound 58], the IC50 at hNav1.7 (tonic, Table 11) was 0.904 nM; on hNav1.4 (tonic, Table 11), 43.2 nM. Moreover, at hNav1.7 (Table 11), the Nav1.4/Nav1.7 was found to be 48.
`CC[C@H](C)[C@H](NC(=O)[C@@H](NC(=O)[C@H](CCCCN)NC(=O)[C@H](CCCNC(=N)N)NC(=O)[C@@H]1CSSC[C@@H]2NC(=O)[C@H](C)NC(=O)[C@H](CCCNC(=N)N)NC(=O)[C@H](CCCCN)NC(=O)[C@H](CO)NC(=O)[C@H](CC(=O)O)NC(=O)[C@@H]3CSSC[C@H](NC(=O)[C@H](CCCNC(=N)N)NC(=O)[C@H](CC(C)C)NC(=O)CNC(=O)[C@H](CCC(=O)O)NC(=O)[C@H](CSSC[C@H](NC(=O)[C@@H](N)Cc4ccc(O)cc4)C(=O)N[C@@H](CCC(N)=O)C(=O)N[C@@H](CCCCN)C(=O)N[C@@H](Cc4c[nH]c5ccccc45)C(=O)N[C@@H](CCSC)C(=O)N[C@@H](Cc4c[nH]c5ccccc45)C(=O)N[C@@H]([C@@H](C)O)C(=O)N3)NC2=O)C(=O)N[C@@H](CCC(=O)O)C(=O)N[C@@H](CC(C)C)C(=O)N[C@@H](Cc2c[nH]c3ccccc23)C(=O)N1)[C@@H](C)CC)C(N)=O` [compound 64]: the IC50 at hNav1.7 (tonic, Table 11) was 930 nM; at hNav1.4 (tonic, Table 11), 4340 nM. The Nav1.4/Nav1.7 on hNav1.7 (Table 11) worked out at 5.
The like results for `CC[C@H](C)[C@H](NC(=O)[C@@H](NC(=O)[C@H](CCC(=O)O)NC(=O)[C@H](CCCNC(=N)N)NC(=O)[C@@H]1CSSC[C@@H]2NC(=O)[C@H](C)NC(=O)[C@H](CCCNC(=N)N)NC(=O)[C@H](CCCCN)NC(=O)[C@H](CO)NC(=O)[C@H](CC(=O)O)NC(=O)[C@@H]3CSSC[C@H](NC(=O)[C@H](CCCNC(=N)N)NC(=O)[C@H](CC(C)C)NC(=O)CNC(=O)[C@H](CCC(=O)O)NC(=O)[C@H](CSSC[C@H](NC(=O)[C@@H](N)Cc4ccc(O)cc4)C(=O)N[C@@H](CCC(N)=O)C(=O)N[C@@H](CCCCN)C(=O)N[C@@H](Cc4c[nH]c5ccccc45)C(=O)N[C@@H](CCSC)C(=O)N[C@@H](Cc4c[nH]c5ccccc45)C(=O)N[C@@H]([C@@H](C)O)C(=O)N3)NC2=O)C(=O)N[C@@H](CCCCN)C(=O)N[C@@H](CC(C)C)C(=O)N[C@@H](Cc2c[nH]c3ccccc23)C(=O)N1)[C@@H](C)CC)C(N)=O` [compound 68] were, in that order, 12.3 nM, 324 nM and 26.
Regarding `C#CC[C@@H]1NC(=O)[C@@H]2CSSC[C@H](NC(=O)[C@H](Cc3ccc(O)cc3)NC(=O)[C@@H](N)CC#N)C(=O)N[C@@H](CCC(N)=O)C(=O)N[C@@H](CCCCN)C(=O)N[C@@H](Cc3c[nH]c4ccccc34)C(=O)N[C@@H](CCCC)C(=O)N[C@@H](Cc3c[nH]c4ccccc34)C(=O)N[C@@H]([C@@H](C)O)C(=O)N[C@H]3CSSC[C@H](NC(=O)[C@H](CCC(=O)O)NC(=O)[C@H](CC(C)C)NC(=O)CNC1=O)C(=O)N[C@@H](CCCCN)C(=O)N[C@@H](CC(C)C)C(=O)N[C@@H](Cc1c[nH]c4ccccc14)C(=O)N[C@H](C(=O)N[C@@H](CCCNC(=N)N)C(=O)N[C@@H](CCCCN)C(=O)N[C@H](C(=O)N[C@H](C(N)=O)[C@@H](C)CC)[C@@H](C)CC)CSSC[C@H](NC(=O)[C@H](C)NC(=O)[C@H](CCCNC(=N)N)NC(=O)[C@H](CCCCN)NC(=O)[C@H](CO)NC(=O)[C@H](CC(=O)O)NC3=O)C(=O)N2` [compound 396], the IC50 at hNav1.7 (Table 12, tonic block) was found to be 2.84 nM; on hNav1.4 (Table 12, tonic block), 278 nM. Further, the Nav1.4/Nav1.7 on hNav1.4 (Table 12) is recorded as 98.
In the case of `C#CC[C@H](N)C(=O)NCCCC[C@@H]1NC(=O)[C@H](CCCNC(=N)N)NC(=O)[C@H](CCCCN)NC(=O)[C@H](CO)NC(=O)[C@H](CC(=O)O)NC(=O)[C@@H]2CSSC[C@@H]3NC(=O)[C@H](CCCNC(=N)N)NC(=O)[C@H](CC(C)C)NC(=O)CNC(=O)[C@H](CCC(=O)O)NC(=O)[C@H](CSSC[C@H](NC(=O)[C@H](Cc4ccc(O)cc4)NC(=O)[C@@H](N)CCC)C(=O)N[C@@H](CCC(N)=O)C(=O)N[C@@H](CCCCN)C(=O)N[C@@H](Cc4c[nH]c5ccccc45)C(=O)N[C@@H](CCCC)C(=O)N[C@@H](Cc4c[nH]c5ccccc45)C(=O)N[C@@H]([C@@H](C)O)C(=O)N2)NC(=O)[C@H](CSSC[C@@H](C(=O)N[C@@H](CCCNC(=N)N)C(=O)N[C@@H](CCCCN)C(=O)N[C@H](C(=O)N[C@H](C(N)=O)[C@@H](C)CC)[C@@H](C)CC)NC(=O)[C@H](Cc2c[nH]c4ccccc24)NC(=O)[C@H](CC(C)C)NC(=O)[C@H](CCCCN)NC3=O)NC1=O` [compound 431], the half-inhibitory concentration (IC50) at hNav1.7 (Table 12, tonic block) came out at 1.63 nM. Besides, the Nav1.4/Nav1.7 on hNav1.4 (Table 12) was 13.
Regarding `C#CC[C@H](N)C(=O)N[C@@H](Cc1ccc(O)cc1)C(=O)N[C@H]1CSSC[C@@H]2NC(=O)[C@@H]3CSSC[C@@H](C(=O)N[C@@H](CCCNC(=N)N)C(=O)N[C@@H](CCCCN)C(=O)N[C@@H](CCC(=O)O)C(=O)N[C@@H](Cc4c[nH]c5ccccc45)C(N)=O)NC(=O)[C@H](Cc4c[nH]c5ccccc45)NC(=O)[C@H](CC(C)C)NC(=O)[C@H](CCCCN)NC(=O)[C@H](CSSC[C@H](NC(=O)[C@H]([C@@H](C)O)NC(=O)[C@H](Cc4c[nH]c5ccccc45)NC(=O)[C@H](CCCC)NC(=O)[C@H](Cc4c[nH]c5ccccc45)NC(=O)[C@H](CCCCN)NC(=O)[C@H](CCC(N)=O)NC1=O)C(=O)N[C@@H](CC(=O)O)C(=O)N[C@@H](CO)C(=O)N[C@@H](CCCCN)C(=O)N[C@@H](CCCNC(=N)N)C(=O)N[C@@H](C)C(=O)N3)NC(=O)[C@H](CCCNC(=N)N)NC(=O)[C@H](CC(C)C)NC(=O)CNC(=O)[C@H](CCC(=O)O)NC2=O` [compound 450], the 50% inhibitory concentration (IC50) on hNav1.7 (Table 12, tonic block) came to 0.782 nM; at hNav1.4 (Table 12, tonic block), 36.7 nM. On hNav1.4 (Table 12), the Nav1.4/Nav1.7 was determined as 47.
In the case of `CCCC[C@@H]1NC(=O)[C@H](Cc2c[nH]c3ccccc23)NC(=O)[C@H](CCCCN)NC(=O)[C@H](CCC(N)=O)NC(=O)[C@@H](NC(=O)[C@H](Cc2ccc(O)cc2)NC(=O)[C@@H](N)Cc2cn(CCOCCOCCOCCOCCOCCOCCOCCOCCOCCOCCN)nn2)CSSC[C@@H]2NC(=O)[C@@H]3CSSC[C@@H](C(=O)N[C@@H](CCCNC(=N)N)C(=O)N[C@@H](CCCCN)C(=O)N[C@@H](CCC(=O)O)C(=O)N[C@H](C(N)=O)[C@@H](C)CC)NC(=O)[C@H](Cc4c[nH]c5ccccc45)NC(=O)[C@H](CC(C)C)NC(=O)[C@H](CCCCN)NC(=O)[C@H](CSSC[C@H](NC(=O)[C@H]([C@@H](C)O)NC(=O)[C@H](Cc4c[nH]c5ccccc45)NC1=O)C(=O)N[C@@H](CC(=O)O)C(=O)N[C@@H](CO)C(=O)N[C@@H](CCCCN)C(=O)N[C@@H](CCCNC(=N)N)C(=O)N[C@@H](C)C(=O)N3)NC(=O)[C@H](CCCNC(=N)N)NC(=O)[C@H](CC(C)C)NC(=O)CNC(=O)[C@H](CCC(=O)O)NC2=O` [compound 883], at hNav1.4 (Table 13), the Nav1.4/Nav1.7 is recorded as 120.

The values are drawn from patent US10344060B2 (priority 2013, dated 2019).
